Assay results from US20240368151A1, “NOVEL ERGOLINES AND METHODS OF TREATING MOOD DISORDERS” (priority 2021, published 2024).
Like-named read-outs stand apart in the source and are kept apart here.

Legend:
5-HT2A receptor [1] = target: T1, 5-HT2A receptor (Homo sapiens (Human), UniProt P28223); type: cell-based; conditions: Ca^2+ flux, HEK293
Method: (§1) Functional Assays at 5-HT2A, 5-HT2B, and 5-HT1A. Agonist activity at 5-HT2A, 5-HT2B, and 5-HT1A receptors was determined using a FLIPR Ca^2+ flux assay at WuXi AppTec (Hong Kong) Limited according to their standard protocols. Briefly, stably transfected cells expressing the receptor of interest (HEK293 for 5-HT2A and 5-HT2B; CHO cells for 5-HT1A) were grown and plated in a 384 well plate and incubated at 37° C. and 5% CO2 overnight. A solution of 250 mM probenecid in 1 mL FLIPR assay buffer was prepared fresh. This was combined with a fluorescent dye (Fluo-4 Direct™) to make a final assay concentration of 2.5 mM. […] The fluorescent dye was then added to the assay plate along with assay buffer to a final volume of 40 μL. The cell plate was incubated for 50 min at 37° C. and 5% CO2 and placed into the FLIPR Tetra along with the compound plate. 10p L of references and compounds were then transferred from the compound plate into the cell plate and the fluorescent signal was read.

5-HT2B receptor = 5-HT2B receptor (Homo sapiens (Human), UniProt P41595); assay: FLIPR Ca^2+ flux agonist assay at 5-HT2B; type: cell-based; conditions: HEK293
Method: as §1

human 5-HT2C receptor = human 5-HT2C receptor (Homo sapiens (Human), UniProt P28335); type: cell-based
5-HT1A receptor = 5-HT1A receptor (Homo sapiens (Human), UniProt P08908); assay: FLIPR Ca^2+ flux agonist assay at 5-HT1A; type: cell-based; conditions: CHO cells
Method: as §1

5-HT2A receptor [2] = target: T1, 5-HT2A receptor; type: cell-based; conditions: beta-arrestin recruitment
Method: The degree of arrestin bias varied substantially across the other compounds tested as well.
Arrestin Functional Assay at 5-HT2A. Recruitment of beta-arrestin was determined using a PathHunter assay at Eurofins DiscoverX (Fremont, CA) according to their standard protocols. PathHunter GPCR beta-arrestin assays take advantage of DiscoverX's proprietary Enzyme Fragment Complementation technology. The GPCR is fused in frame with a small enzyme donor fragment ProLink™ (PK) and co-expressed in cells stably expressing a fusion protein of beta-arrestin and the larger, N-terminal deletion mutant of beta-galactosidase. Activation of the GPCR (5-HT2A receptor in this case) stimulates binding of beta-arrestin to the PK-tagged GPCR and forces complementation of the two enzyme fragments, resulting in the formation of an active beta-galactosidase enzyme. This interaction leads to an increase in enzyme activity that can be measured using chemiluminescent PathHunter Detection Reagents. Briefly, PathHunter cells expressing 5-HT2A receptors were seeded in a volume of 20 μL into 384-well plates and incubated at 37° C. for the appropriate time prior to testing. […] Plates were then imaged on a microplate reader and the agonist activity was calculated using the following formula: % Activity=100%×(mean RLU of test sample−mean RLU of vehicle control)/(mean MAX control ligand−mean RLU of vehicle control), where RLU=relative light units.

[3] = Metabolic stability in human liver microsomes (HLM); type: in vitro ADME; conditions: for half-life at 1 μM: both sexes, human, pooled human liver microsomes, pH 7.4, NADPH
Source text: HLM Stability. Pooled HLM from adult male and female donors (Corning 452117) were used.

[4] = Metabolic stability in mouse liver microsomes (MLM); type: in vitro ADME; conditions: NADPH; for half-life at 1 μM: mouse, pooled mouse liver microsomes, pH 7.4, MLM (CD-1)
Source text: MLM Stability Pooled MLM from CD-1 mice (BIOIVT M00501) were used.

[5] = Metabolic stability in rat liver microsomes (RLM); type: in vitro ADME; conditions: for half-life at 1 μM: both sexes, rat, pooled rat liver microsomes, pH 7.4, NADPH
C57BL/6 mice = assay: Mouse head twitch response (HTR) assay; type: in vivo; conditions: mouse HTR, SC; for Emax (95% CI) / # HTR at Most Efficacious Dose: 20 min observation; for Emax (95% CI): curve fit
Method: Agonists of the 5-HT2A receptor are well known to induce this effect in rodents and the potency of this HTR is correlated with hallucinogenic potency in humans.
Animals. Adult male C57BL/6 mice, aged 6-8 weeks (body weight 20-25 g) were used in this experiment. Animals were housed under controlled temperatures and 12-hour light/dark cycles (lights on between 07:00-19:00 h), with ad libitum food and water. This study was carried out in strict accordance with the requirements of the Committee for the Purpose of Control and Supervision of Experiments on Animals (CPCSEA), India. All efforts were made to minimize suffering.
Drugs and Drug Administration. Compound 1 was synthesized as described above. It was administered subcutaneously (SC) dissolved in saline vehicle at a volume of 10 mL/kg. Five doses were tested, with n=6 animals/group. Doses were calculated on the basis of the freebase.
Procedure. Mice were administered one dose of the drug and immediately placed into a small open field for behavioral observation. Animals were observed continuously for 20 mins and the number of head twitches (HTs) were counted by an observer blind to the treatment condition.
Statistical Analysis. The data points shown are the mean±standard error of the mean (SEM). Analysis was performed using GraphPad Prism 6. Curves were fit using a non-linear gaussian distribution to calculate ED50 and Emax values.
Additional disclosed compounds were tested in the mouse head twitch response (HTR) assay according to the procedure described in Example 34. […] Lastly, compounds with much larger benzyl and phenethyl substituents on the amine nitrogen (e.g., 10 and 11) were low efficacy in this assay, consistent with their lower maximal efficacy in the arrestin functional assay (see Example 32).

Chain of human 5-HT2C receptor (P28335 33-458 limits assumed): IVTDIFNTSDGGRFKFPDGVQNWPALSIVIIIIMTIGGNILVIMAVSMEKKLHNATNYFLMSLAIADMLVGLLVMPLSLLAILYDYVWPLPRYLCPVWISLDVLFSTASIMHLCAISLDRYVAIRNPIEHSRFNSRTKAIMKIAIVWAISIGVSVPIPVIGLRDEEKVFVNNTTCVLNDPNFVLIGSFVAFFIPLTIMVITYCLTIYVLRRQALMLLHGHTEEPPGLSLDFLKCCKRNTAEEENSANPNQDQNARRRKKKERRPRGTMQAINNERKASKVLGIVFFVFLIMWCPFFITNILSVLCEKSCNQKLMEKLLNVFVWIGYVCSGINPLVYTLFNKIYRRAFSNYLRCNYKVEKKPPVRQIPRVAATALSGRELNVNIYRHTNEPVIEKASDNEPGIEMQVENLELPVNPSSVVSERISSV
Chain of 5-HT2B receptor (P41595 whole entry, looked up): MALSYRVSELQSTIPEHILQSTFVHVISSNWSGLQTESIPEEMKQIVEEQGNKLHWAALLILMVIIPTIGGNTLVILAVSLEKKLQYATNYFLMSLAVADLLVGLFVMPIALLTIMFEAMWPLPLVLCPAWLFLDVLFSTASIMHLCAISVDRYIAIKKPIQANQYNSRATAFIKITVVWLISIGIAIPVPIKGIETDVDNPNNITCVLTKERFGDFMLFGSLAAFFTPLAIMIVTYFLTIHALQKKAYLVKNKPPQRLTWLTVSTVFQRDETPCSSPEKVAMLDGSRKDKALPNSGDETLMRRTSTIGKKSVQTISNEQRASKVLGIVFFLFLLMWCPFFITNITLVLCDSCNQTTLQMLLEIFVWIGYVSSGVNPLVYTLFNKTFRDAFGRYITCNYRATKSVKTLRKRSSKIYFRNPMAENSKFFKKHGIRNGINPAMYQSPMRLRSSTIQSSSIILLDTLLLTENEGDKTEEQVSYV

SMILES | 5-HT2A % Act @ Max Dose (5-HT2A receptor [1]) | 5-HT2B % Act @ Max Dose (5-HT2B receptor) | 5-HT2C % Act @ Max Dose (human 5-HT2C receptor; Ca^2+ flux) | 5-HT1A % Act @ Max Dose (5-HT1A receptor) | 5-HT2A Arrestin % Act @ Max Dose (5-HT2A receptor [2]) | half-life at 1 μM [3] | half-life at 1 μM [4] | half-life at 1 μM [5] | agonist type in the 5-HT2A arrestin recruitment assay, in words (5-HT2A receptor [2]) | Most Efficacious Dose (C57BL/6 mice) | Emax (95% CI) (C57BL/6 mice) | # HTR at Most Efficacious Dose (C57BL/6 mice) | 5-HT2C % Act @ Max Dose (human 5-HT2C receptor) | Clint ([3]; 1 μM, NADPH) | t1/2 ([3]; 1 μM, NADPH) | Clint ([4]; MLM (CD-1), 1 μM) | t1/2 ([4]; MLM (CD-1), 1 μM) | Clint ([5]; 1 μM, NADPH) | t1/2 ([5]; 1 μM, NADPH)
C=CCN1C[C@@H](C(=O)N[C@H](C)CC)C=C2c3cccc4[nH]cc(c34)C[C@H]21 [Compound 8a, (6aR,9S)-7-allyl-N-((R)-sec-butyl)-4,6,6a,7,8,9-hexahydroindolo[4,3-fg]quinoline-9-carboxamide] | 87.45% | 35.71% | 13.314% | 90.34% | 81.117% | 3.4 min | 0.8 min | 1.7 min | – | – | – | – | – | – | – | – | – | – | –
CCC[C@@H](C)NC(=O)[C@@H]1C=C2c3cccc4[nH]cc(c34)C[C@H]2N(C)C1 [Int17, (6aR,9R)-7-methyl-N-((R)-pentan-2-yl)-4,6,6a,7,8,9-hexahydroindolo[4,3-fg]quinoline-9-carboxamide] | 91.47% | 25.49% | 102.19% | 113.04% | 38.809% | 15.9 min | 8.25 min | 27.9 min | partial agonists | (0.32 mg/kg) | 4.96 | – | – | – | – | – | – | – | –
CC[C@@H](C)NC(=O)[C@H]1C=C2c3cccc4[nH]cc(c34)C[C@H]2N(C)C1 [Int8a, (6aR,9S)-N-((R)-sec-butyl)-7-methyl-4,6,6a,7,8,9-hexahydroindolo[4,3-fg]quinoline-9-carboxamide] | 72.6% | 6.87% | 93.73% | 103.65% | 35.52% | 11.1 min | 1.6 min | 3.5 min | – | – | – | – | – | – | – | – | – | – | –
CCC[C@@H](C)NC(=O)[C@@H]1C=C2c3cccc4[nH]cc(c34)C[C@H]2N(CCC)C1 [Compound 7, (6aR,9R)-N-((R)-pentan-2-yl)-7-propyl-4,6,6a,7,8,9-hexahydroindolo[4,3-fg]quinoline-9-carboxamide] | 94.52% | 94.75% | 114.78% | 107.16% | 110.2% | 1.65 min | 0.541 min | 1.61 min | full agonists | (1 mg/kg) | 720.4 | 16.667 | – | – | – | – | – | – | –
CCC[C@@H](C)NC(=O)[C@H]1C=C2c3cccc4[nH]cc(c34)C[C@H]2N(C)C1 [Int17a, (6aR,9S)-7-methyl-N-((R)-pentan-2-yl)-4,6,6a,7,8,9-hexahydroindolo[4,3-fg]quinoline-9-carboxamide] | 63.31% | 5.63% | 112.06% | 88.52% | 43.729% | 4.58 min | 1.58 min | 1.96 min | – | – | – | – | – | – | – | – | – | – | –
CC[C@@H](C)NC(=O)[C@@H]1C=C2c3cccc4[nH]cc(c34)C[C@H]2N(CC)C1 [Compound 5] | 102.81% | 84.77% | – | 107.87% | 105.72% | – | – | – | full agonists | (0.32 mg/kg) | 15.22 | 17.667 | 114.5% | 62.3 µL/min/mg | 22.2 min | 170.4 µL/min/mg | 8.1 min | 72.0 µL/min/mg | 19.3 min
CCN(CC)C(=O)[C@H]1C=C2c3cccc4[nH]cc(c34)C[C@H]2N(CCCF)C1 [Compound 2a, (6aR,9S)-N,N-diethyl-7-(3-fluoropropyl)-4,6,6a,7,8,9-hexahydroindolo[4,3-fg]quinoline-9-carboxamide] | 90.29% | 40.13% | 118.85% | 96.77% | 83.328% | 17 min | 1.78 min | 9.67 min | – | – | – | – | – | – | – | – | – | – | –
CCC(CC)NC(=O)[C@H]1C=C2c3cccc4[nH]cc(c34)C[C@H]2N(C)C1 [Int14a, (6aR,9S)-7-methyl-N-(pentan-3-yl)-4,6,6a,7,8,9-hexahydroindolo[4,3-fg]quinoline-9-carboxamide] | 32.98% | 1.86% | 119.28% | 70.27% | 44.321% | 3.35 min | 1.7 min | 1.8 min | – | – | – | – | – | – | – | – | – | – | –
CC[C@@H](C)NC(=O)[C@H]1C=C2c3cccc4[nH]cc(c34)C[C@H]2N(CC)C1 [Compound 5a, (6aR,9S)-N-((R)-sec-butyl)-7-ethyl-4,6,6a,7,8,9-hexahydroindolo[4,3-fg]quinoline-9-carboxamide] | 89.59% | 43.7% | 99.4405% | 111.65% | 62.444% | 5.5 min | 1.7 min | 3.1 min | – | – | – | – | – | – | – | – | – | – | –
CCCN1C[C@@H](C(=O)N[C@H](C)CC)C=C2c3cccc4[nH]cc(c34)C[C@H]21 [Compound 3a, (6aR,9S)-N-((R)-sec-butyl)-7-propyl-4,6,6a,7,8,9-hexahydroindolo[4,3-fg]quinoline-9-carboxamide] | 92.04% | 52.81% | 108.705% | 108.14% | 112.91% | 2.2 min | 0.6 min | 1.4 min | – | – | – | – | – | – | – | – | – | – | –
C[C@H]1C[C@H](C)N1C(=O)[C@@H]1C=C2c3cccc4[nH]cc(c34)C[C@H]2N(C)C1 [Int11, ((2S,4S)-2,4-dimethylazetidin-1-yl)((6aR, 9R)-7-methyl-4,6,6a,7,8,9-hexahydroindolo[4,3-fg]quinolin-9-yl)methanone] | 110.03% | 38.15% | – | 89.9% | 49.269% | 25.7 min | 13.9 min | 54.9 min | partial agonists | (0.1 mg/kg) | 10.93 | 10.667 | – | – | – | – | – | – | –
